We go through ten compounds from patent publication US9169270B2, “1-phenyl-substituted heterocyclyl derivatives and their use as prostaglandin D2 receptor modulators” (Actelion Pharmaceuticals Ltd., priority 2012, dated 2015).

pIC50: −log10 of the molar value.

Usually pIC50 stands for the negative decadic logarithm of the IC50, by convention in mol/L. A lower pIC50 goes with a high IC50.

hCRTH2 receptor, sequence (Q9Y5Y4 whole entry, the tested form may be a part): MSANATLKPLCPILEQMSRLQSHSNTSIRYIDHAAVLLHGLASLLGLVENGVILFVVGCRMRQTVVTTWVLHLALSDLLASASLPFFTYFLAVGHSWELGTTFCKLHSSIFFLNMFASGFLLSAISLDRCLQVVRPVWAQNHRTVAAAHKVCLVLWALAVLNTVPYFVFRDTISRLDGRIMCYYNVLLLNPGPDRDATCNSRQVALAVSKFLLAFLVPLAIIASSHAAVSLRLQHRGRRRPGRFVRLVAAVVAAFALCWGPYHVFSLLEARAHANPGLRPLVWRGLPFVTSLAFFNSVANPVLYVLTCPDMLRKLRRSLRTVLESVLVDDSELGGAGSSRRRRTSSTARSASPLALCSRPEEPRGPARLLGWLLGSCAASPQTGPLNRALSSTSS

The experiment concerns the target hCRTH2 receptor (Homo sapiens (Human), UniProt Q9Y5Y4). The experiment is described as follows: hCRTH2 receptor membranes radioligand (3H-PGD2) displacement assay. The following applies: hCRTH2 membrane fragments, Binding-Buffer with 0.1% BSA. In outline: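 Membranes from HEK293 cells expressing recombinant hCRTH2 (20 μg/well) incubated with compound and ³H-PGD2 for 90 min at room temperature in Tris buffer pH 7.0 with NaCl, EDTA, 0.1% BSA, 10 mM MnCl2. Bound radioactivity collected on PEI-treated GF/C filters and counted; non-specific binding defined with excess PGD2.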
Compound `COC(C)(C)CCOC(=O)N1CCc2ncsc2[C@H]1c1cc(Cl)ccc1OCC(=O)O` [Example 62, (R)-4-(2-Carboxymethoxy-5-chloro-phenyl)-6,7-dihydro-4H-thiazolo[5,4-c]pyridine-5-carboxylic acid 3-methoxy-3-methyl-butyl ester] gave a pIC50 of 8.32.

As for `Cc1ccc(COC(=O)N2CCc3ncsc3[C@H]2c2cc(Cl)ccc2OCC(=O)O)c(C)c1` [Example 63, (R)-4-(2-Carboxymethoxy-5-chloro-phenyl)-6,7-dihydro-4H-thiazolo[5,4-c]pyridine-5-carboxylic acid 2,4-dimethyl-benzyl ester], the pIC50 is 9.05.

For the compound `O=C(O)COc1ccc(Cl)cc1[C@@H]1c2scnc2CCN1C(=O)OCc1cc(F)ccc1Cl` [Example 64, (R)-4-(2-Carboxymethoxy-5-chloro-phenyl)-6,7-dihydro-4H-thiazolo[5,4-c]pyridine-5-carboxylic acid 2-chloro-5-fluoro-benzyl ester], the pIC50 is 9.52. This pIC50 is 0.47 log units higher than that of the compound before.

Consider `CC(C)(C)CCOC(=O)N1CCc2ncsc2[C@H]1c1cc(Cl)ccc1OCC(=O)O` [Example 65, (R)-4-(2-Carboxymethoxy-5-chloro-phenyl)-6,7-dihydro-4H-thiazolo[5,4-c]pyridine-5-carboxylic acid 3,3-dimethyl-butyl ester], for which the pIC50 is 8.89. Compared with the last compound, the pIC50 is 0.63 log units lower.

`CC(C)CCOC(=O)N1CCc2ncsc2[C@H]1c1cc(Cl)ccc1OCC(=O)O` [Example 67, (R)-4-(2-Carboxymethoxy-5-chloro-phenyl)-6,7-dihydro-4H-thiazolo[5,4-c]pyridine-5-carboxylic acid 3-methyl-butyl ester] had a negative logarithm of the IC50 (pIC50) of 9.40.

Compound `O=C(O)COc1ccc(Cl)cc1[C@@H]1c2scnc2CCN1C(=O)OCC1CCC1` [Example 69, (R)-4-(2-Carboxymethoxy-5-chloro-phenyl)-6,7-dihydro-4H-thiazolo[5,4-c]pyridine-5-carboxylic acid cyclobutylmethyl ester] showed a negative logarithm of the IC50 (pIC50) of 8.38.

In turn, `O=C(O)COc1ccc(Cl)cc1[C@@H]1c2scnc2CCN1C(=O)OCc1cccc(F)c1F` [Example 71, (R)-4-(2-Carboxymethoxy-5-chloro-phenyl)-6,7-dihydro-4H-thiazolo[5,4-c]pyridine-5-carboxylic acid 2,3-difluoro-benzyl ester] had a pIC50 of 9.30.

`Cc1cccc(COC(=O)N2CCc3ncsc3[C@H]2c2cc(Cl)ccc2OCC(=O)O)c1C` [Example 72, (R)-4-(2-Carboxymethoxy-5-chloro-phenyl)-6,7-dihydro-4H-thiazolo[5,4-c]pyridine-5-carboxylic acid 2,3-dimethyl-benzyl ester] gave a pIC50 of 8.92.

`O=C(O)COc1ccc(Cl)cc1[C@@H]1c2scnc2CCN1C(=O)OCCCF` [Example 74, (R)-4-(2-Carboxymethoxy-5-chloro-phenyl)-6,7-dihydro-4H-thiazolo[5,4-c]pyridine-5-carboxylic acid 3-fluoro-propyl ester] had a pIC50 of 8.85.

Regarding `O=C(O)COc1ccc(Cl)cc1[C@@H]1c2scnc2CCN1C(=O)OCc1ccccc1F` [Example 75, (R)-4-(2-Carboxymethoxy-5-chloro-phenyl)-6,7-dihydro-4H-thiazolo[5,4-c]pyridine-5-carboxylic acid 2-fluoro-benzyl ester], the pIC50 is 9.22.
